Columns and labels:
LNCaP cell line = test: Chelate permeability: fluorescence of cytoplasm and membrane fractions; type: cell-based, human; details: 1 mM chelate, 2 h
T84 cell line = test: as above; type: cell-based, human; details: 1 mM chelate, 2 h
Caco-2 cell line = test: as above; type: cell-based, human; details: 1 mM chelate, 2 h
[1] = system: HEK293 cells, normal (non-induced); test: Permeability of chelates to HEK293 cells, fluorescence of fractions; type: cell-based, human; details: for Fluorescence/mg Cytoplasm / Fluorescence/mg Membrane: HEK293 Normal, 1 mM chelate, 2 hours; for differential fluorescence, cytoplasm versus membrane fractions: normal HEK293 cells
Method: (§1) The human kidney transformed HEK293 cells (obtained from the ATCC) were grown in Eagle's Minimum Essential Medium (EMEM) supplemented with 10% (v/v) heat-inactivated fetal bovine serum, sodium pyruvate, nonessential amino acids and antibiotics in a humidified 5% CO2 atmosphere at 37° C. Medium and supplements were purchased from Gibco bRL (Grand Island, N.Y.). Etoposide was obtained from Sigma (St. Louis, Mo.) and prepared as 20 mM solution in dimethyl sulfoxide (DMSO). For treatments, etoposide was applied to the HEK293 cultures at 1:1000 dilution (final concentration of 20 μM) after cell became 75% confluent. As a control, cells were fed with medium containing 0.1% DMSO in the absence of etoposide. After treatment with etoposide, cells were incubated in a humidified 5% CO2 at 37° C. for 24 hours. HEK293 cells were collected by removing treatment medium and washed 2 times with 10 mM HEPES buffer. Final cell pellets were resuspended in a small amount of HEPES and stored at 4° C. for further study.
(§2) Cells were grown to confluence in T-150 flasks (about 2×10^6 cells). […] After treatment, the chelate or analogue supernatant was discarded and the cells were rinsed three times at room temperature with 10 mM HEPES. Cells were then removed from the flask by manual scraping. Cells were transferred to a 50-mL conical tube and centrifuged (400×g) for 5 minutes and the test material removed. Remaining cells were rinsed twice with cold 10 mM HEPES. Cells were used in cell binding assays.

[2] = system: etoposide-induced (apoptotic) HEK293 cells; test: Permeability of chelates to apoptotic cells, fluorescence of fractions; type: cell-based, human; details: for Fluorescence/mg Cytoplasm / Fluorescence/mg Membrane: HEK293 Apoptotic (etoposide 20 μM, 24 hours), 1 mM chelate, 2 hours; for differential fluorescence, cytoplasm versus membrane fractions: etoposide-induced HEK293 cells
Method: as §1, §2

[3] = system: cancer cells (LNCaP, Caco-2, T84); test: Chelate permeability and specificity, cancer cells versus normal cells (summary); type: cell-based, human; details: for permeability to cell membranes: cancer cells
RBL-2H3 cell line = test: Chelate permeability: fluorescence of cytoplasm and membrane fractions; type: cell-based, rat; details: 1 mM chelate, 2 h, Table 4
Method: Tb-PCTMB (Tb(III) 3,6,9-tris(methylene phosphonic acid n-butyl ester)-3,6,9,15-tetraazabicyclo[9.3.1]pentadeca-1(15),11,13-triene) was tested for permeability to abnormal and disease-state cells.
RBL-2H3 is a rat basophilic leukemia cell line. These cells were grown in Iscove's Medium supplemented with 2 mM L-glutamnine, penicillin/streptomycin (100 IU/mL, 100 μg/mL) and 10% FBS. Cells were maintained at 5% CO2 and 95% humidity. PZ-HPV-7 cell line was derived from epithelial cells cultured from normal prostate tissue. They were grown in Keratinocyte-Serum Free Medium with human recombinant EGF and bovine pituitary extract supplemented with 50 μg/mL gentamicin and penicillin/streptomycin (100 IU/mL, 100 μg/mL). All media and supplements were purchased from Gibco BRL (Grand Island, N.Y., USA). All cell lines were obtained from ATCC and were maintained at 37° C., 5% CO2 and 95% humidity.
Cells were grown to confluence in T-150 flasks (about 2×10^6 cells). […] Cells were then removed from the flask by manual scraping. Cells were transferred to a 50-mL conical tube and centrifuged (400×g) for 5 minutes and the test material removed.
Cells were grown as described herein (Example 1). Cells were grown to confluence in T-150 flask (about 2×10^6 cells). […] Cells were then removed from the flask by manual scraping. Cells were transferred to a 50-mL conical tube and centrifuged (400×g) for 5 minutes and the test material removed.
Furthermore, one analogue, QCTMP (FIG. 26), having lesser lipophilic character (a free phosphonic acid moiety) was evaluated. […] In this study, the cytoplasm and membrane fractions were extracted by Mem-PER Eukaryotic Membrane Protein Extraction Reagent Kit as described by the manufacturers (Pierce Biotechnology, Rockford, Ill.) and analyzed by a Fluor-S Multilmager.

[4] = system: PZ-HPV-7 normal cell line; test: as above; type: cell-based; details: PZ-HVP-7; 1 mM chelate, 2 h; Table 4

## COP(=O)([O-])CN1CCN(CP(=O)([O-])OC)Cc2cccc(n2)CN(CP(=O)([O-])OC)CC1.[Tb+3] [Tb-PCTMM]
LNCaP cell line; Table 1
  Fluorescence/mg Cytoplasm: 344.5
  Fluorescence/mg Membrane: 379.5
T84 cell line; Table 1
  Fluorescence/mg Cytoplasm: 328.3
  Fluorescence/mg Membrane: 358.7
Caco-2 cell line; Table 1
  Fluorescence/mg Cytoplasm: 357.7
  Fluorescence/mg Membrane: 388.9
[1]
  Fluorescence/mg Cytoplasm: 682
  Fluorescence/mg Membrane: 679
  differential fluorescence, cytoplasm versus membrane fractions: did not show any significant differential fluorescence
[2]
  Fluorescence/mg Cytoplasm: 656
  Fluorescence/mg Membrane: 962
  differential fluorescence, cytoplasm versus membrane fractions: did not show any significant differential fluorescence
[3]
  specificity or selectivity for cancer cells versus normal cells: did not show any specificity or selectivity
  permeability to cell membranes: no permeability

## O=C([O-])CN1CCN(CC(=O)[O-])Cc2cccc(n2)CN(CC(=O)[O-])CC1.[Tb+3] [Tb-PCTA]
LNCaP cell line; Table 1
  Fluorescence/mg Cytoplasm: 368.8
  Fluorescence/mg Membrane: 362.1
T84 cell line; Table 1
  Fluorescence/mg Cytoplasm: 333.4
  Fluorescence/mg Membrane: 329.1
Caco-2 cell line; Table 1
  Fluorescence/mg Cytoplasm: 366.3
  Fluorescence/mg Membrane: 362.8
[1]
  Fluorescence/mg Cytoplasm: 686
  Fluorescence/mg Membrane: 685
  differential fluorescence, cytoplasm versus membrane fractions: did not show any significant differential fluorescence
[2]
  Fluorescence/mg Cytoplasm: 652
  Fluorescence/mg Membrane: 678
  differential fluorescence, cytoplasm versus membrane fractions: did not show any significant differential fluorescence
[3]
  specificity or selectivity for cancer cells versus normal cells: did not show any specificity or selectivity
  permeability to cell membranes: no permeability

## Cc1ccc2nc(CN3CCN(CP(=O)([O-])O)CCN(CP(=O)([O-])O)CCN(CP(=O)([O-])O)CC3)ccc2c1.[Eu+3] [Eu-QCTMP]
LNCaP cell line; Table 4
  Fluorescence/mg Cytoplasm: 2287
  Fluorescence/mg Membrane: 2301
T84 cell line; Table 4
  Fluorescence/mg Cytoplasm: 2230
  Fluorescence/mg Membrane: 2259
Caco-2 cell line; Table 4
  Fluorescence/mg Cytoplasm: 2300
  Fluorescence/mg Membrane: 2314
RBL-2H3 cell line
  Fluorescence/mg Cytoplasm: 2311
  Fluorescence/mg Membrane: 2311
[4]
  Fluorescence/mg Cytoplasm: 2276
  Fluorescence/mg Membrane: 2271
[1]
  Fluorescence/mg Cytoplasm: 1732
  Fluorescence/mg Membrane: 1738
  differential fluorescence, cytoplasm versus membrane fractions: did not show any significant differential fluorescence
[2]
  Fluorescence/mg Cytoplasm: 1450
  Fluorescence/mg Membrane: 1800
  differential fluorescence, cytoplasm versus membrane fractions: did not show any significant differential fluorescence
[3]
  specificity or selectivity for cancer cells versus normal cells: did not show any specificity or selectivity
  permeability to cell membranes: did not appear to be permeable

Source: patent publication US20060210479A1 (Dow Global Technologies Inc., priority 2004, published 2006)
